Test results from patent US20250019401A1, “ANTIMICROBIAL PEPTIDE BOLESPLEENIN OF BOLEOPHTHALMUS PECTINIROSTRIS AND APPLICATION THEREOF” (Xiamen University, priority 2023, published 2025).
Where a SMILES comes first, the peptide text is derived from it.

How the values were obtained:
Assay type in all cases: cell-based
Acinetobacter baumannii = test system: Acinetobacter baumannii
Source text: (§1) Bacterial strains involved in Embodiment 2 are as follows: Staphylococcus aureus, Acinetobacter baumannii, Escherichia coli, Enterococcus faecium, Enterococcus faecalis, Pseudomonas aeruginosa, Cryptococcus neoformans, Fusarium oxysporum, Aspergillus flavus, and Fusarium solani.
(§2) The bacterial strains are purchased from the China General Microbiological Culture Collection Center (CGMCC).
(§3) A specific analysis method of this embodiment is as follows:
(§4) (1) The conserved strains are coated on a nutrient broth plate, a Yeast Extract Peptone Dextrose (YPD) plate, or a potato dextrose plate and are inverted and incubated for 1-7 days.
(§5) (2) Colonies are picked from the plates, inoculated on a slant with a corresponding medium, continually incubated for 1-7 days, and washed down from the slant with corresponding medium with 10 mMol/L (mM) of sodium phosphate buffer (pH=7.4), and concentrations of suspensions of the bacteria or suspensions of the fungi are adjusted. The suspensions of the bacteria are diluted so that final concentrations are 5×10^5 CFU/mL. Mold spores of the suspensions of the fungi are counted under an optical microscope using a hemocyte counting plate, and concentrations of mold spores are adjusted to final concentrations of 5×10^4 spores/mL.
(§6) (3) Powder of the synthesized antimicrobial peptide Bolespleenin is dissolved in sterilized distillation-distillation H2O (ddH2O), filtered through a 0.22 μm filter membrane, and concentrations of the antimicrobial peptide Bolespleenin are then diluted to 3 μM, 6 μM, 12 μM, 24 μM, 48 μM, 96 μM, and 192 μM, and placed on ice for use.
(§7) (4) A blank control group, a negative control group, and an experimental group of each of the bacteria and the fungi to be tested are set on 96-well cell culture plates, and each of the blank control group, the negative control group, and the experimental group has three parallel samples.
(§8) The blank control group a: 50 μL of the antimicrobial peptide Bolespleenin with 50 μL of the corresponding medium;
(§9) The negative control group b: 50 μL of the sterilized ddH2O with 50 μL of each of the suspensions of the bacteria or the suspensions of the fungi; and
(§10) The experimental group c: 50 μL of the antimicrobial peptide Bolespleenin with 50 μL of each of the suspensions of the bacteria or the suspensions of the fungi.
(§11) (5) The 96-well cell culture plates are plated in an incubator at 28° C. and incubated for 1-2 days, and MIC results of the experimental group are observed. The experimental group is mixed by blowing, an appropriate amount of each of the suspensions of the bacteria or the suspensions of the fungi is sucked up, added dropwise onto the plate with the corresponding medium, and inverted and incubated at an appreciate temperature for 1-2 days, and MBC results are observed.

Aspergillus flavus = test system: Aspergillus flavus
Source text: as §1, §2, §3, §4, §5, §6, §7, §8, §9, §10, §11

Cryptococcus neoformans = test system: Cryptococcus neoformans
Source text: as §1, §2, §3, §4, §5, §6, §7, §8, §9, §10, §11

Enterococcus faecalis = test system: Enterococcus faecalis
Source text: as §1, §2, §3, §4, §5, §6, §7, §8, §9, §10, §11

Enterococcus faecium = test system: Enterococcus faecium
Source text: as §1, §2, §3, §4, §5, §6, §7, §8, §9, §10, §11

Escherichia coli = test system: Escherichia coli
Source text: as §1, §2, §3, §4, §5, §6, §7, §8, §9, §10, §11

Fusarium oxysporum = test system: Fusarium oxysporum
Source text: as §1, §2, §3, §4, §5, §6, §7, §8, §9, §10, §11

Fusarium solani = test system: Fusarium solani
Source text: as §1, §2, §3, §4, §5, §6, §7, §8, §9, §10, §11

Pseudomonas aeruginosa = test system: Pseudomonas aeruginosa
Source text: as §1, §2, §3, §4, §5, §6, §7, §8, §9, §10, §11

Staphylococcus aureus = test system: Staphylococcus aureus
Source text: as §1, §2, §3, §4, §5, §6, §7, §8, §9, §10, §11

CC[C@H](C)[C@H](NC(=O)[C@@H](N)CC(C)C)C(=O)NCC(=O)N[C@@H](CC(C)C)C(=O)N[C@@H](Cc1ccc(O)cc1)C(=O)N[C@@H](CC(C)C)C(=O)N[C@@H](CC(C)C)C(=O)N[C@@H](Cc1c[nH]cn1)C(=O)N[C@@H](CCCNC(=N)N)C(=O)N[C@@H](CCCNC(=N)N)C(=O)N[C@@H](CCCNC(=N)N)C(=O)N[C@@H](CCCNC(=N)N)C(=O)N[C@@H](CCCNC(=N)N)C(=O)N[C@@H](Cc1c[nH]cn1)C(=O)O [Bolespleenin, Leu-Ile-Gly-Leu-Tyr-Leu-Leu-His-Arg-Arg-Arg-Arg-Arg-His] (H-LIGLYLLHRRRRRH-OH)
24 to 48 µM: MBC (a-b) (Aspergillus flavus)
6 to 12 µM: MIC (a-b) (Aspergillus flavus) | MBC (a-b) (Escherichia coli)
<1.5 µM: MBC (a-b) (Cryptococcus neoformans) | MIC (a-b) (Cryptococcus neoformans) | MIC (a-b) (Pseudomonas aeruginosa) | MIC (a-b) (Staphylococcus aureus)
3 to 6 µM: MBC (a-b) (Enterococcus faecalis) | MIC (a-b) (Enterococcus faecalis) | MIC (a-b) (Escherichia coli) | MBC (a-b) (Fusarium oxysporum) | MIC (a-b) (Fusarium oxysporum) | MBC (a-b) (Fusarium solani) | MIC (a-b) (Fusarium solani)
1.5 to 3 µM: MBC (a-b) (Acinetobacter baumannii) | MIC (a-b) (Acinetobacter baumannii) | MBC (a-b) (Enterococcus faecium) | MIC (a-b) (Enterococcus faecium) | MBC (a-b) (Pseudomonas aeruginosa) | MBC (a-b) (Staphylococcus aureus)
